In patent US8399465B2, “Compounds with two fused bicyclic heteroaryl moieties as modulators of leukotriene A4 hydrolase” (Janssen Pharmaceutica NV, priority 2009, dated 2013):
Like-named read-outs stand apart in the source and are kept apart here.

What was measured:
[1] = target: T1, recombinant human LTA4 hydrolase (rhLTA4H) (Homo sapiens, UniProt P09960); assay: Recombinant human LTA4 hydrolase assay for LTA4 hydrolase inhibitor activity; format: biochemical
T1 construct: made in house; host or cells: Spodoptera frugiperda (Sf-9) cells, baculovirus (pFastBac1)
T1 sequence (P09960 1-611): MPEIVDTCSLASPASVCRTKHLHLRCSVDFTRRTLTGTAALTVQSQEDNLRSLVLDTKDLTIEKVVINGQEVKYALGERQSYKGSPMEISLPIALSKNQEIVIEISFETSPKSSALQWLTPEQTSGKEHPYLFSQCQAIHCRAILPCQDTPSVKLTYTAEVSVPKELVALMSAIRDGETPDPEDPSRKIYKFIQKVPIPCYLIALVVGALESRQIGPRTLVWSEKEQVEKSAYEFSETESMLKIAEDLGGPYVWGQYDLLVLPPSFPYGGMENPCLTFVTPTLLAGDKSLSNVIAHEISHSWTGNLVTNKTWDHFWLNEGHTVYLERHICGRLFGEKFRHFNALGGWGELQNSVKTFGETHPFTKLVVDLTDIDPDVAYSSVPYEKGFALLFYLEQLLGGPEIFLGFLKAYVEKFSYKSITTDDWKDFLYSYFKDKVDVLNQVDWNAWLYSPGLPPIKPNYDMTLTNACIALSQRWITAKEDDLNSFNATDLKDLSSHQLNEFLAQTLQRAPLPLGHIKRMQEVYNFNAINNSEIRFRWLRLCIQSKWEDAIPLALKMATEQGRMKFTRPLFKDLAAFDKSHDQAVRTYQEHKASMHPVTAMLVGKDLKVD
Procedure, shortened: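 Baculovirus/Sf-9-expressed human LTA4H (10 ng) was preincubated 10 min at rt with compound in assay buffer (10% DMSO in compound dilution), then reacted 30 min at rt with LTA4 free acid made from its methyl ester. LTB4 produced was measured by ELISA after dilution; IC50 from non-linear regression, single or averaged determinations.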

[2] = test system: LTB4 production in murine blood (LTA4H); assay: LTB4 production by calcium ionophore-stimulated murine blood for LTA4H inhibitor activity; format: cell-based, CD-1 mice; details: Mus musculus; murine blood diluted 1 in 15, A23187 stimulated; single determination or average; mark after value = form tested: ′ free base, ″ hydrochloride, ^ formate; read-out: IC50
Procedure, shortened: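 Heparinized blood from CD-1 mice was preincubated with compound for 15 min at 37° C, then stimulated with calcium ionophore A23187 (final 7 μg/mL) for 30 min. Centrifugation stopped the reaction, and LTB4 in the supernatant was measured by enzyme immunoassay. Values are single determinations or means of two or more.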

[3] = test system: ex vivo calcium ionophore-stimulated LTB4 production in whole blood; assay: Murine arachidonic acid-induced inflammation model: ex vivo stimulated LTB4 production in blood; design: species or system Balb/c mice; details: Mus musculus; 30 mg/kg oral gavage; blood diluted 1:1, A23187 stimulated ex vivo; percent inhibition of LTB4 production; read-out: % Inh. LTB4
Method: (§1) Assay 3: Murine Arachidonic Acid-Induced Inflammation Model
(§2) LTA4H inhibitor compounds of the present invention were dissolved in 20% cyclodextran/H2O at a concentration of 3 mg/mL. The solutions were administered by oral gavage to female Balb/c mice weighing approximately 20 grams each (0.2 mL per mouse, 30 mg of LTA4H inhibitor compound per kg). Sixty minutes after being administered an LTA4 inhibitor, each mouse received topical application of 20 μL of arachidonic acid (100 mg/mL in acetone) to the left ear and 20 μL of acetone only to the right ear. After 3 h, the mice were sacrificed, blood was withdrawn in heparinized syringes, and 8 mm ear biopsies were taken. Ear biopsies were weighed to determine edema and then frozen at −80° C. until needed for determination of neutrophil influx.
The microtiter plate contents were incubated for 30 min at 37° C. in a humidified incubator. The reaction was terminated by centrifugation (833×g, 10 min at 4° C.). Supernatants were analyzed for LTB4 by a commercially available enzyme-linked immunoassay (Cayman Chemical Co.) in accordance with the manufacturer's instructions. The percent inhibition of ex vivo stimulated LTB4 production (% Inh. LTB4) was determined by comparison to animals treated identically except that the solution administered by oral gavage was devoid of inhibitor compound.

[4] = test system: arachidonic acid-induced neutrophil influx in murine ear tissue; assay: Murine arachidonic acid-induced inflammation model: neutrophil influx (myeloperoxidase) in ear; format: in vivo, Balb/c mice; details: Mus musculus; 30 mg/kg oral gavage, 60 min before topical arachidonic acid, ear biopsy after 3 h; percent inhibition of neutrophil influx; read-out: % Inh. MPO
Method: as §1, §2
Neutrophil influx was quantified by measuring the activity of myeloperoxidase (MPO), a neutrophil-specific enzyme. […] Debris was removed by centrifugation at 14000×g for 10 min. […] The microtiter plate contents were held at room temperature until the sample with the highest concentration of MPO reached an absorbance value of 0.4 at 650 nm. The reaction was stopped by addition of 50 μL 1 M H2SO4 to each sample well, and the myeloperoxidase activity in each sample was determined from the absorbance at […]. The background value from the right ear, treated only with acetone, was subtracted from that for the left ear, treated with arachidonic acid in acetone, for each animal. The percent inhibition of neutrophil influx (% Inh. MPO) by compounds of the invention was determined by comparison to animals treated identically, except that the solution administered by oral gavage was devoid of inhibitor compound. All compounds were assayed in their free base form.

[5] = rhLTA4H, LTB4 by immunoassay, single determination or average of two or more, mark after value = form tested: ′ free base, ″ hydrochloride, ^ formate, read-out: IC50

c1cnc2nc(Oc3ccc4oc(CN5C[C@@H]6C[C@H]5CO6)cc4c3)sc2c1 [Example 99, (1S,4S)-2-[2-(2-Oxa-5-aza-bicyclo[2.2.1]hept-5-ylmethyl)-benzofuran-5-yloxy]-thiazolo[4,5-b]pyridine]
IC50 [1, 5]: 37 nM | IC50 [2]: 63 nM | inhibition at 30 mg/kg [3]: 15% | inhibition at 30 mg/kg [4]: 58%

NC(=O)N1C[C@@H]2C[C@H]1CN2Cc1cc2cc(Oc3nc4ncccc4s3)ccc2o1 [Example 100, (1S,4S)-5-[5-(Thiazolo[4,5-b]pyridin-2-yloxy)-benzofuran-2-ylmethyl]-2,5-diaza-bicyclo[2.2.1]heptane-2-carboxylic acid amide]
IC50 [1, 5]: 69 nM | IC50 [2]: 160 nM | inhibition at 30 mg/kg [3]: 44% | inhibition at 30 mg/kg [4]: 33%

NC(=O)N1C[C@H]2C[C@@H]1CN2Cc1cc2cc(Oc3nc4ncccc4s3)ccc2o1 [Example 101, (1R,4R)-5-[5-(Thiazolo[4,5-b]pyridin-2-yloxy)-benzofuran-2-ylmethyl]-2,5-diaza-bicyclo[2.2.1]heptane-2-carboxylic acid amide]
IC50 [1, 5]: 52 nM | IC50 [2]: 202 nM | inhibition at 30 mg/kg [3]: 53% | inhibition at 30 mg/kg [4]: 65%

NC(=O)N[C@H]1C[C@H]2CC[C@@H](C1)N2Cc1cc2cc(Oc3nc4ncccc4s3)ccc2o1 [Example 103, meso-endo-N-{8-[5-(Thiazolo[4,5-b]pyridin-2-yloxy)-benzofuran-2-ylmethyl]-8-aza-bicyclo[3.2.1]oct-3-yl}-urea]
IC50 [1, 5]: 4 nM | IC50 [2]: 132 nM | inhibition at 30 mg/kg [3]: 0% | inhibition at 30 mg/kg [4]: 18%

CC(=O)N[C@@H]1C[C@H]2CC[C@@H](C1)N2Cc1cc2cc(Oc3nc4ncccc4s3)ccc2o1 [Example 104, meso-exo-N-{8-[5-(Thiazolo[4,5-b]pyridin-2-yloxy)-benzofuran-2-ylmethyl]-8-aza-bicyclo[3.2.1]oct-3-yl}-acetamide]
IC50 [1, 5]: 10 nM | IC50 [2]: 16 nM | inhibition at 30 mg/kg [3]: 83% | inhibition at 30 mg/kg [4]: 92%

CC(=O)N[C@@H]1C[C@H]2CC[C@@H](C1)N2Cc1cc2ccc(Oc3nc4ncccc4s3)cc2o1 [Example 106, meso-exo-N-{8-[6-(Thiazolo[4,5-b]pyridin-2-yloxy)-benzofuran-2-ylmethyl]-8-aza-bicyclo[3.2.1]oct-3-yl}-acetamide]
IC50 [1, 5]: 7 nM | IC50 [2]: 14 nM | inhibition at 30 mg/kg [3]: 85% | inhibition at 30 mg/kg [4]: 81%

CC(=O)N1C[C@H]2C[C@@H]1CN2Cc1cc2ccc(Oc3nc4ncccc4s3)cc2o1 [Example 107, (1R,4R)-1-{5-[6-(Thiazolo[4,5-b]pyridin-2-yloxy)-benzofuran-2-ylmethyl]-2,5-diaza-bicyclo[2.2.1]hept-2-yl}-ethanone]
IC50 [1, 5]: 65 nM | IC50 [2]: 276 nM | inhibition at 30 mg/kg [3]: 75% | inhibition at 30 mg/kg [4]: 82%

CN(C)Cc1cc2cc(Oc3nc4ncccc4s3)ccc2o1 [Example 112, Dimethyl-[5-(thiazolo[4,5-b]pyridin-2-yloxy)-benzofuran-2-ylmethyl]-amine]
IC50 [1, 5]: 42 nM | IC50 [2]: 70 nM | inhibition at 30 mg/kg [3]: 56% | inhibition at 30 mg/kg [4]: 17%

NC(=O)C1CCN(Cc2cc3ccc(Oc4nc5ncccc5s4)cc3o2)CC1 [Example 116, 1-[6-(Thiazolo[4,5-b]pyridin-2-yloxy)-benzofuran-2-ylmethyl]-piperidine-4-carboxylic acid amide]
IC50 [1, 5]: 44 nM | IC50 [2]: 55 nM | inhibition at 30 mg/kg [3]: 76% | inhibition at 30 mg/kg [4]: 66%

CC(=O)N[C@H]1C[C@H]2CC[C@@H](C1)N2Cc1cc2ccc(Oc3nc4ncccc4s3)cc2o1 [Example 118, meso-endo-N-{8-[6-(Thiazolo[4,5-b]pyridin-2-yloxy)-benzofuran-2-ylmethyl]-8-aza-bicyclo[3.2.1]oct-3-yl}-acetamide]
IC50 [1, 5]: 23 nM | IC50 [2]: 50 nM | inhibition at 30 mg/kg [3]: 89% | inhibition at 30 mg/kg [4]: 97%

CC(=O)N1C[C@H]2CC[C@@H](C1)N2Cc1cc2ccc(Oc3nc4ncccc4s3)cc2o1 [Example 119, meso-1-{8-[6-(Thiazolo[4,5-b]pyridin-2-yloxy)-benzofuran-2-ylmethyl]-3,8-diaza-bicyclo[3.2.1]oct-3-yl}-ethanone]
IC50 [1, 5]: 36 nM | IC50 [2]: 220 nM | inhibition at 30 mg/kg [3]: 78% | inhibition at 30 mg/kg [4]: 83%

CC(=O)N[C@H]1C[C@H]2CC[C@@H](C1)N2Cc1cc2ccc(Oc3nc4ncccc4s3)cc2s1 [Example 135, meso-endo-N-{8-[6-(Thiazolo[4,5-b]pyridin-2-yloxy)-benzo[b]thiophen-2-ylmethyl]-8-aza-bicyclo[3.2.1]oct-3-yl}-acetamide]
IC50 [1, 5]: 3 nM | IC50 [2]: 110 nM | inhibition at 30 mg/kg [3]: 85% | inhibition at 30 mg/kg [4]: 42%

CC(=O)N1C[C@H]2CC[C@@H](C1)N2Cc1coc2cc(Oc3nc4ncccc4s3)ccc12 [Example 153, 1-{8-[6-(Thiazolo[4,5-b]pyridin-2-yloxy)-benzofuran-3-ylmethyl]-3,8-diaza-bicyclo[3.2.1]oct-3-yl}-ethanone]
IC50 [1, 5]: 2 nM | IC50 [2]: 25 nM | inhibition at 30 mg/kg [3]: 84% | inhibition at 30 mg/kg [4]: 82%

CC(=O)N1C[C@@H]2C[C@H]1CN2Cc1coc2cc(Oc3nc4ncccc4s3)ccc12 [Example 154, (1S,4S)-1-{5-[6-(Thiazolo[4,5-b]pyridin-2-yloxy)-benzofuran-3-ylmethyl]-2,5-diaza-bicyclo[2.2.1]hept-2-yl}-ethanone]
IC50 [1, 5]: 7 nM | IC50 [2]: 26 nM | inhibition at 30 mg/kg [3]: 83% | inhibition at 30 mg/kg [4]: 83%

CC(=O)N[C@H]1C[C@H]2CC[C@@H](C1)N2Cc1coc2cc(Oc3nc4ncccc4s3)ccc12 [Example 155, meso-endo-N-{8-[6-(Thiazolo[4,5-b]pyridin-2-yloxy)-benzofuran-3-ylmethyl]-8-aza-bicyclo[3.2.1]oct-3-yl}-acetamide]
IC50 [1]: 2 nM | IC50 [2]: 9 nM | inhibition at 30 mg/kg [3]: 85% | inhibition at 30 mg/kg [4]: 88%

c1cnc2nc(Oc3ccc4c(CN5CCOCC5)coc4c3)sc2c1 [Example 156, 2-(3-Morpholin-4-ylmethyl-benzofuran-6-yloxy)-thiazolo[4,5-b]pyridine]
IC50 [1, 5]: 17 nM | IC50 [2]: 21 nM | inhibition at 30 mg/kg [3]: 91% | inhibition at 30 mg/kg [4]: 86%

CC(=O)N1C[C@H]2C[C@@H]1CN2Cc1coc2cc(Oc3nc4ncccc4s3)ccc12 [Example 157, (1R,4R)-1-{5-[6-(Thiazolo[4,5-b]pyridin-2-yloxy)-benzofuran-3-ylmethyl]-2,5-diaza-bicyclo[2.2.1]hept-2-yl}-ethanone]
IC50 [1, 5]: 8 nM | IC50 [2]: 16 nM | inhibition at 30 mg/kg [3]: 97% | inhibition at 30 mg/kg [4]: 93%
